Columns and labels:
Type in all cases: physicochemical
[1] = oxidation potential E1 by cyclic voltammetry; details: Table A; 80%/20% acetonitrile/water, 0.1M lithium perchlorate, 25° C.
Description: Oxidation potentials are well known and can be found, for example, in "Encyclopedia of Electrochemistry of the Elements", Organic Section, Volumes XI-XV, A. Bard and H. Lund (Editors) Marcel Dekker Inc., NY. (1984). E1 can be measured by the technique of cyclic voltammetry. In this technique, the electron donating compound is dissolved in a solution of 80%/20% by volume acetonitrile to water containing 0.1M lithium perchlorate. Oxygen is removed from the solution by passing nitrogen gas through the solution for 10 minutes prior to measurement. A glassy carbon disk is used for the working electrode, a platinum wire is used for the counter electrode, and a saturated calomel electrode (SCE) is used for the reference electrode. Measurement is conducted at 25° C. using a potential sweep rate of 0.1 V/sec. The oxidation potential vs. SCE is taken as the peak potential of the cyclic voltammetric wave.

[2] = oxidation potential E2 of radical X by laser flash photolysis; details: Table C; by parent XY compound; < = more negative than
Source text: In this technique, the compound X-Y is oxidized by an electron transfer reaction initiated by a short laser pulse. The oxidized form of X-Y then undergoes the bond cleavage reaction to give the radical X^.cndot.. X^.cndot. is then allowed to interact with various electron acceptor compounds of known reduction potential. […] The experimental details are set forth more fully below. The oxidation potentials (E2) for radicals X^.cndot. for typical compounds useful in accordance with our invention are given in Table C. Where only limits on potentials could be determined, the following notation is used: <-0.90 V should be read as "more negative than -0.90 V" and >-0.40 V should be read as "less negative than -0.40 V".
(a) Oxidation Potential of Radical X.cndot.
The laser flash photolysis measurements were performed using a nanosecond pulsed excimer (Questek model 2620, 308 nm, ca. 20 ns, ca. 100 mJ) pumped dye laser (Lambda Physik model FL 3002). The laser dye was DPS (commercially available from Exciton Co.) in p-dioxane (410 nm, ca. 20 ns, ca. 10 mJ). The analyzing light source was a pulsed 150W xenon arc lamp (Osram XBO 150/W). The arc lamp power supply was a PRA model 302 and the pulser was a PRA model M-306. The pulser increased the light output by ca. 100 fold, for a time period of ca. 2-3 ms. The analyzing light was focussed through a small aperture (ca. 1.5 mm) in a cell holder designed to hold 1 cm^2 cuvettes. The laser and analyzing beams irradiated the cell from opposite directions and crossed at a narrow angle (ca. 15°). After leaving the cell, the analyzing light was collimated and focussed onto the slit (1 mm, 4 nm bandpass) of an ISA H-20 monochromator. The light was detected using 5 dynodes of a Hamamatsu model R446 photomultiplier. The output of the photomultiplier tube was terminated into 50 ohm, and captured using a Tektronix DSA-602 digital oscilloscope. The entire experiment is controlled from a personal computer.
The experiments were performed either in acetonitrile, or a mixture of 80% acetonitrile and 20% water. The first singlet excited state of a cyanoanthracene (A), which acted as the electron acceptor, was produced using the nanosecond laser pulse at 410 nm. […] Secondary electron transfer then occurred between B^.cndot.+ and the lower oxidation potential electron donor X-Y, to generate X-Y^.cndot.+ in high yield. For the investigations of the oxidation potentials of the radicals X^.cndot., typically the cyanoanthrancene concentration was ca. 2×10^-5 M to 10^-4 M the biphenyl concentration was ca. 0.1M. The concentration of the X-Y donor was ca. 10^-3 M. The rates of the electron transfer reactions are determined by the concentrations of the substrates. The concentrations used ensured that the A^.cndot.- and the X-Y^.cndot.+ were generated within 100 ns of the laser pulse. The radical ions could be observed directly by means of their visible absorption spectra. The kinetics of the photogenerated radical ions were monitored by observation of the changes in optical density at the appropriate wavelengths.
The reduction potential (Ered) of 9,10-dicyanoanthracene (DCA) is -0.91 V. In a typical experiment, DCA is excited and the initial photo-induced electron transfer from the biphenyl (B) to the DCA forms a DCA^.cndot.-, which is observed at its characteristic absorption maximum (λobs =705 nm), within ca. 20 ns of the laser pulse. Rapid secondary electron transfer occurs from X-Y to B^.cndot.+ to generate X-Y^.cndot.+, which fragments to give X^.cndot.. A growth in absorption is then observed at 705 nm with a time constant of ca. 1 microsecond, due to reduction of a second DCA by the X^.cndot.. The absorption signal with the microsecond growth time is equal to the size of the absorption signal formed within 20 ns.
If the oxidation potential of X^.cndot. is not sufficiently negative to reduce DCA, an estimate of its oxidation potential was obtained by using other cyanoanthracenes as acceptors. […]

[3] = fragmentation rate constant kfr by laser flash photolysis; details: Table B; CH3CN/H2O (4:1)
Source text: The kinetics of the bond cleavage or fragmentation reaction can be measured by conventional laser flash photolysis. […] The specific experimental apparatus we used to measure fragmentation rate constants and radical oxidation potentials is described in detail below.
(b) Fragmentation Rate Constant Determination
These absorptions were used to determine the kinetics of the fragmentation reactions of the radical cations of the X-Y. Excitation of 9,10-dicyanoanthracene (DCA) in the presence of biphenyl and the X-Y donor, as described above, results in the formation of the DCA^.cndot.- and the X-Y^.cndot.+. By using a concentration of X-Y of ca. 10^-2 M, the X-Y^.cndot.+ can be formed within ca. 20 ns of the laser pulse. […] The monitoring wavelengths used were somewhat different for the different donors, but were mostly around 470-530 nm. […] Alternatively, when the decay rate of the X-Y^.cndot.+ was less than 10^6 s^-1, the solutions were purged with oxygen.
The experiments measuring the fragmentation rate constants were performed in acetonitrile with the addition of 20% water, so that all of the salts could be easily solubilized. Most experiments were performed at room temperature. […] When this happened, the fragmentation rate constants were measured as a function of temperature, and the rate constant at room temperature determined by extrapolation.

SMILES | Oxidation Potential of X--Y, E1 [1] | Oxidation Potentials of Radicals (X*), E2 [2] | kfr, Rate Constants for Decarboxylation of Radical Cations [3]
CCN(CC)c1ccc(C(C)(O)C(=O)O)cc1 (centres unmarked) [Compound 4] | 0.49 V vs SCE | – | –
CCCCN(c1ccccc1)C(CC(=O)O)C(=O)O (centres unmarked) [Compound 41] | 0.48 V vs SCE | – | –
CC(C(=O)O)N(C)c1ccc(C(=O)O)cc1 (centres unmarked) [Compound 33] | 0.54 V vs SCE | < -0.9 V | –
Nc1nc(C(O)C(=O)O)cs1 (centres unmarked) [Compound 60] | 0.80 V vs SCE | – | –
O=C(O)CC(Nc1ccccc1)C(=O)O (centres unmarked) [Compound 30] | 0.60 V vs SCE | – | –
O=C(O)COc1ccccc1N(CC(=O)O)CC(=O)O [Compound 22] | 0.65 V vs SCE | – | –
COc1ccc(N(CC(=O)O)CC(=O)O)cc1OC [Compound 21] | 0.36 V vs SCE | – | 1000 s⁻¹
CC(Nc1ccc(C(N)=O)cc1)C(=O)O (centres unmarked) [Compound 27] | 0.62 V vs SCE | – | –
CCCCN(c1ccc(C)cc1)C(C)C(=O)O (centres unmarked) [Compound 35] | 0.34 V vs SCE | – | –
CCCCN(c1ccc(C(=O)O)cc1)C(C)C(=O)O (centres unmarked) [Compound 38] | 0.48 V vs SCE | – | –
O=C(O)C(O)c1ccccc1 (centres unmarked) [Compound 49] | ~ 1.2 V vs SCE | -0.75 V | –
CC(Nc1cccc(C(N)=O)c1)C(=O)O (centres unmarked) [Compound 32] | 0.58 V vs SCE | – | –
COc1ccc(C(O)C(=O)O)cc1 (centres unmarked) [Compound 50] | ~ 1.05 V vs SCE | < -0.9 V | –
O=C(O)CC(Nc1ccc(C(=O)O)cc1)C(=O)O (centres unmarked) [Compound 31] | 0.61 V vs SCE | – | –
Cn1cc(CC(=O)O)c2ccccc21 [Compound 46] | 0.68 V vs SCE | ~ -0.34 V | –
CC(Nc1ccc(C(=O)O)cc1)C(=O)O (centres unmarked) [Compound 25] | 0.62 V vs SCE | – | –
CN(C)c1ccc(C(C)(O)C(=O)O)cc1 (centres unmarked) [Compound 5] | 0.51 V vs SCE | < -0.9 V | –
CCN(c1cccc(C(N)=O)c1)C(C)C(=O)O (centres unmarked) [Compound 34] | 0.52 V vs SCE | – | –
COc1ccc(NC(C)C(=O)O)cc1 (centres unmarked) [Compound 23] | 0.37 V vs SCE | – | –
COc1cc(OC)c(C(O)C(=O)O)cc1OC (centres unmarked) [Compound 48] | 0.70 V vs SCE | < -0.9 V | –
CCOC(=O)c1ccc(NC(C)C(=O)O)cc1 (centres unmarked) [Compound 28] | 0.61 V vs SCE | – | –

SMILES | Oxidation Potential of X--Y, E1 [1] | Oxidation Potentials of Radicals (X*), E2 [2] | kfr, Rate Constants for Decarboxylation of Radical Cations [3]
CCCCN(c1ccc(Cl)cc1)C(C)C(=O)O (centres unmarked) [Compound 39] | 0.40 V vs SCE | – | –
CC(C(=O)O)N(CC(=O)O)c1ccc(C=O)cc1 (centres unmarked) [Compound 17] | 0.74 V vs SCE | – | –
CC(C)(Nc1ccccc1)C(=O)O [Compound 59] | 0.53 V vs SCE | – | –
CC(C(=O)O)N(c1ccccc1)c1ccccc1 (centres unmarked) [Compound 58] | 0.49 V vs SCE | – | –
Cn1cc(C(O)C(=O)O)c2ccccc21 (centres unmarked) [Compound 43] | 0.61 V vs SCE | -0.89 V | –
CC1CC(C)(C)N(CC(=O)O)c2ccccc21 (centres unmarked) [Compound 47] | – | ~ -0.9 V | > 10^7 s^-1
O=C(O)CN(CC(=O)O)c1ccc(Cl)cc1 [Compound 12] | 0.58 V vs SCE | – | –
CN(C)c1ccc(C(O)C(=O)O)cc1 (centres unmarked) [Compound 3] | – | – | 550000 s⁻¹
CC(Nc1ccccc1)C(=O)O (centres unmarked) [Compound 24] | 0.52 V vs SCE | – | –
CCCCN(c1ccc(C)cc1)C(CC(=O)O)C(=O)O (centres unmarked) [Compound 40] | 0.38 V vs SCE | – | 1.3e+07 s⁻¹
CC(C(=O)O)N(CC(=O)O)c1ccc(S(=O)(=O)O)cc1 (centres unmarked) [Compound 18] | 0.70 V vs SCE | – | –
CCC(C)c1ccc(N(CC(=O)O)C(C)C(=O)O)cc1 (centres unmarked) [Compound 16] | 0.47 V vs SCE | ~ -0.9 V | –
CC(Nc1ccc(Cl)cc1)C(=O)O (centres unmarked) [Compound 26] | 0.51 V vs SCE | – | –
O=C(O)COc1ccc(N(CC(=O)O)CC(=O)O)cc1 [Compound 9] | 0.38 V vs SCE | – | –
CC(C(=O)O)c1cn(C)c2ccccc12 (centres unmarked) [Compound 45] | 0.64 V vs SCE | -0.56 V | –
CCN(CC)c1ccc(C(O)C(=O)O)cc1 (centres unmarked) [Compound 2] | 0.50 V vs SCE | < -0.9 V | –
CCN(CC)S(=O)(=O)c1ccc(N(CC(=O)O)C(C)C(=O)O)cc1 (centres unmarked) [Compound 19] | 0.68 V vs SCE | – | –
COc1ccc(C(O)C(=O)O)cc1OC (centres unmarked) [Compound 51] | 0.91 V vs SCE | < -0.9 V | –
CCCCN(c1ccccc1)C(C)C(=O)O (centres unmarked) [Compound 37] | 0.43 V vs SCE | – | –
Cc1ccc(N(CCC(=O)O)C[Si](C)(C)C)cc1 [Compound 42] | 0.30 V vs SCE | ~ -0.9 V | –
